Columns and labels:
[1] = test system: black bean aphids (Aphis fabae); assay: Method B: root-systemic action against black bean aphids on field bean, preparation pipetted into the water; type: in vivo; details: 10 ppm (content of active compound), 4 ml solution pipetted into bottle with Vicia faba roots, after 3 and 6 days of storage, read-out: mortality among the aphids, by root-systemic action
Description: Germinated field bean seeds (Vicia faba) with seed roots were transferred into brown glass bottles filled with tap water. Four milliliters of an aqueous solution of the formulated preparation to be examined were pipetted into the brown glass bottle. The field bean was then heavily populated with about 100 black bean aphids (Aphis fabae). Plants and aphids were then stored in a climatized chamber (16 hours of light/day, 25° C., 40-60% relative atmospheric humidity). After 3 and 6 days of storage, the root-systemic effect of the preparation on the aphids was determined.

[2] = test system: black bean aphids (Aphis fabae); assay: Method A: field bean plants and black bean aphids dipped into aqueous solution of the formulated preparation; type: in vivo; details: 100 ppm (content of active compound), plants (Vicia faba) and aphids dipped 5 seconds, after 3 and 6 days of storage, read-out: mortality among the aphids
Description: Germinated field bean seeds (Vicia faba) with seed roots were transferred into brown glass bottles filled with tap water and then populated with about 100 black bean aphids (Aphis fabae). Plants and aphids were then dipped into an aqueous solution of the formulated preparation to be examined for 5 seconds. After they had drained, plants and animals were stored in a climatized chamber (16 hours of light/day, 25° C., 40-60% relative atmospheric humidity). After 3 and 6 days of storage, the effect of the preparation on the aphids was determined.

CON(C)C(=O)NC(=O)c1cnccc1C(F)(F)F [Compound A-313, 1-methyl-1-methoxy-3-(4-trifluoromethyl-3-pyridylcarbonyl)urea]
mortality at 10 ppm [1]: ≥ 80%

CC(C)N(O)C(=O)NC(=O)c1cnccc1C(F)(F)F [Compound A-540, 1-hydroxyl-1-isopropyl-3-(4-trifluoromethyl-3-pyridylcarbonyl)urea]
mortality at 10 ppm [1]: ≥ 80%
mortality at 100 ppm [2]: ≥ 50%

O=C(NC(=O)N(CCO)Cc1ccccc1)c1cnccc1C(F)(F)F [Compound A-862, 1-benzyl-1-(2-hydroxyethyl)-3-(4-trifluoromethyl-3-pyridylcarbonyl)urea]
mortality at 10 ppm [1]: ≥ 80%
mortality at 100 ppm [2]: ≥ 50%

CN(C(=S)NC(=O)c1cnccc1C(F)(F)F)c1ccccc1 [Compound B-349, 1-methyl-1-phenyl-3-(4-trifluoromethyl-3-pyridylcarbonyl)thiourea]
mortality at 10 ppm [1]: ≥ 80%
mortality at 100 ppm [2]: ≥ 50%

C=CCN(C(=O)c1cnccc1C(F)(F)F)C(=O)N(C)OC [Compound E-85, 1-methyl-1-methoxy-3-allyl-3-(4-trifluoromethyl-3-pyridylcarbonyl)urea]
mortality at 10 ppm [1]: ≥ 80%
mortality at 100 ppm [2]: ≥ 50%

CC(C)N1OCCN(C(=O)c2cnccc2C(F)(F)F)C1=O [Compound U-3, 2-isopropyl-4-(4-trifluoromethyl-3-pyridylcarbonyl)-perhydro-1,2,4-oxadiazin-3-one]
mortality at 10 ppm [1]: ≥ 80%
mortality at 100 ppm [2]: ≥ 50%

O=C(NC(=S)OCC(F)(F)F)c1cnccc1C(F)(F)F [Compound X-45, 2,2,2-trifluoroethyl N-(4-trifluoromethyl-3-pyridylcarbonyl)thiocarbamate]
mortality at 10 ppm [1]: ≥ 80%
mortality at 100 ppm [2]: ≥ 50%
